Results taken from ChEMBL document CHEMBL2346626, “PF-04859989 as a template for structure-based drug design: identification of new pyrazole series of irreversible KAT II inhibitors with improved lipophilic efficiency” (Bioorg Med Chem Lett, 2013).

Assays:
[1] = molecular target: T1, Kynurenine/alpha-aminoadipate aminotransferase, mitochondrial (Homo sapiens, UniProt Q8N5Z0); experiment: Inhibition of human KAT2 using L-kynurenine as substrate measured every 5 mins for 16 hours by UV-visible spectra analysis
Target sequence in this assay (Q8N5Z0 30-425 limits assumed): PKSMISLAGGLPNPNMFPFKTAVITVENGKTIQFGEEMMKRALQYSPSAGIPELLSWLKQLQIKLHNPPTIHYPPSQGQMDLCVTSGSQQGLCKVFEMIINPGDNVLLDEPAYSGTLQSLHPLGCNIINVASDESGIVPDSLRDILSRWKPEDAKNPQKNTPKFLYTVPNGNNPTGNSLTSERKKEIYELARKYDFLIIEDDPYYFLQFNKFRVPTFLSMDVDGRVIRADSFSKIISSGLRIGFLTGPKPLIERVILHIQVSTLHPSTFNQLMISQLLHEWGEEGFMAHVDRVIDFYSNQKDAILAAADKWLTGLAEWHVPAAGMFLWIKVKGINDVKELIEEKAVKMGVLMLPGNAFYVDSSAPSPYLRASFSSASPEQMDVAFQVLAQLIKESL

[2] = molecular target: T1, Kynurenine/alpha-aminoadipate aminotransferase, mitochondrial; experiment: Inhibition of human KAT2 using L-kynurenine as substrate after 15 to 20 hrs by UV-visible spectra analysis
Target sequence in this assay (Q8N5Z0 whole entry): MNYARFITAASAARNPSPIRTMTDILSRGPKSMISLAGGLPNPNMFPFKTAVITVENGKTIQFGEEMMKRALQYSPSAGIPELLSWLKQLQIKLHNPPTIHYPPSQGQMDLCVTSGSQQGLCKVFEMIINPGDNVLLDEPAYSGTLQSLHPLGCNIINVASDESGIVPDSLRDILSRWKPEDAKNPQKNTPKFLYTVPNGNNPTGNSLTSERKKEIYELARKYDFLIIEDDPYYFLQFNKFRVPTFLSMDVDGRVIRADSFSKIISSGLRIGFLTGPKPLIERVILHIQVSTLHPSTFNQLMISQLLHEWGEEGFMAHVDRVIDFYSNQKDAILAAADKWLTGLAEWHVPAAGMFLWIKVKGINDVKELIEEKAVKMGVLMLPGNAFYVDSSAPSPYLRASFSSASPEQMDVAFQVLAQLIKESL

[3] = molecular target: T1, Kynurenine/alpha-aminoadipate aminotransferase, mitochondrial; experiment: Ratio of Kinact to Ki for inhibition of human KAT2
Target sequence in this assay (Q8N5Z0 30-425 limits assumed): as the sequence (Q8N5Z0 30-425 limits assumed) above

[4] = Intrinsic apparent clearance in human liver microsomes; type: ADME, Microsome; details: read-out: CLH(app)

| Kinact [1] [min⁻¹] | Ki [2] [nM] | Ratio [3] [M⁻¹ s⁻¹] | IC50 [2] [nM] | microsomal CLint [4] [µL/min/mg] | Compound |
| --- | --- | --- | --- | --- | --- |
| 0.0349 | 32 | 16000 | – | – | Cn1nc(Cc2ccccc2)c2c1N(O)C(=O)[C@@H](N)C2 |
| 0.0146 | 1.6 | 129000 | 37 | 26 | COc1cc2c(cc1Cc1ccccc1)C[C@H](N)C(=O)N2O |
| – | 14 | – | – | – | N[C@H]1Cc2ccccc2N(O)C1=O |
| 0.0227 | 48 | 7920 | 74 | – | N[C@H]1Cc2c(c(C(F)(F)F)nn2Cc2ccccc2)N(O)C1=O |
| 0.0116 | 12 | 16200 | – | – | N[C@H]1Cc2c(cnn2Cc2ccccc2)N(O)C1=O |
| 0.0147 | 23 | 10500 | 47 | – | N[C@H]1Cc2cn(Cc3ccccc3)nc2N(O)C1=O |
| 0.0125 | 1.9 | 112000 | 25 | < 8 | N[C@H]1Cc2cn(-c3ccccc3)nc2N(O)C1=O |
| 0.0144 | 41 | 8580 | 85 | – | N[C@H]1Cc2nn(-c3ccccc3)cc2N(O)C1=O |
| 0.0116 | 22 | 8710 | – | – | COc1cccc(Cc2nn(C)c3c2C[C@H](N)C(=O)N3O)c1 |
